Biological target: Sodium/hydrogen exchanger 1 (Homo sapiens) (UniProt P19634)
Test: Inhibition of NHE1

Sodium/hydrogen exchanger 1 (Homo sapiens), sequence (P19634 whole entry): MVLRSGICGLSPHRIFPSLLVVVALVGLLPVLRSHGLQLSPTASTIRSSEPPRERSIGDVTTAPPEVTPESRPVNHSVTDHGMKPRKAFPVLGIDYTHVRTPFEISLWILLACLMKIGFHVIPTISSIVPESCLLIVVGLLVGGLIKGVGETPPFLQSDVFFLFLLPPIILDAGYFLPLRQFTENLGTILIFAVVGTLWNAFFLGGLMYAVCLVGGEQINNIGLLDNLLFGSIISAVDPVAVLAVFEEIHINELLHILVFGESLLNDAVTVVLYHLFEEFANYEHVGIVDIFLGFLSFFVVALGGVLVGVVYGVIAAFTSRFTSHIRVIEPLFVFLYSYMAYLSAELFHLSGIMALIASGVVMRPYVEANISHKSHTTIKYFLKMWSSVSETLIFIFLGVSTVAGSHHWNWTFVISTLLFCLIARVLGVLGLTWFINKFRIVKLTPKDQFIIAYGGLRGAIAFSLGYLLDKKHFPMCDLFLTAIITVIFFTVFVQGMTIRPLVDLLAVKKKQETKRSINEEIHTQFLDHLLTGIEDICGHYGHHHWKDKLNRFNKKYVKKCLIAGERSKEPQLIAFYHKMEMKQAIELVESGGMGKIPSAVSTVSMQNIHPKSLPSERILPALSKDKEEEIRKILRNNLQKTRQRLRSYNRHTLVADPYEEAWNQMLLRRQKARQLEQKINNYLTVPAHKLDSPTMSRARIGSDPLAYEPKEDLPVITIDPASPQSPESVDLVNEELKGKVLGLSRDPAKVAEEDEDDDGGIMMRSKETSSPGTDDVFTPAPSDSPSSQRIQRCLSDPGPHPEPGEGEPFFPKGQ

Structure (SMILES) | K0.5
N=C(N)NC(=O)c1nc(Cl)c(N)nc1N | 7 µM

Biological target: T1, Urokinase-type plasminogen activator (Homo sapiens, UniProt P00749)
Test: Inhibition of urokinase-type plasminogen activator

IC50 | Structure (SMILES)
10 µM | N=C(N)NC(=O)c1nc(-c2ccccc2)c(N)nc1N
5 µM | N=C(N)NC(=O)c1nc(Br)c(N)nc1N
> 1000 µM | N=C(N)NC(=O)c1cnc(N)c(Br)n1
6 µM | CCN(c1nc(N)c(C(=O)NC(=N)N)nc1Cl)C(C)C
25 µM | CCOC(=O)CCNc1nc(N)c(C(=O)NC(=N)N)nc1Cl
61 µM | N=C(N)NC(=O)c1nc(Cl)c(NCCc2nnn[nH]2)nc1N
14 µM | CCN(CC)CCNc1nc(N)c(C(=O)NC(=N)N)nc1Cl
17 µM | N=C(N)NC(=O)c1nc(Cl)c(NCc2cccnc2)nc1N
16 µM | N#CCCNc1nc(N)c(C(=O)NC(=N)N)nc1Cl
38 µM | N=C(N)NC(=O)c1nc(Cl)c(NCc2ccccn2)nc1N
2 µM | N=C(N)NC(=O)c1nc(I)c(N)nc1N
> 1000 µM | N=C(N)NC(=O)c1nc(Cl)c(NCP(=O)(O)O)nc1N
> 1000 µM | CCOP(=O)(O)CCNc1nc(N)c(C(=O)NC(=N)N)nc1Cl
> 1000 µM | N=C(N)NC(=O)c1nc(Cl)cnc1N
6 µM | N=C(N)NC(=O)c1nc(Cl)c(NCc2ccncc2)nc1N
50 µM | N#CCNc1nc(N)c(C(=O)NC(=N)N)nc1Cl
26 µM | COC(=O)CNc1nc(N)c(C(=O)NC(=N)N)nc1Cl
> 1000 µM | N=C(N)NC(=O)c1nc(Cl)c(NCCS(=O)(=O)O)nc1N
8 µM | N=C(N)NC(=O)c1nc(Cl)c(NCc2ccccc2)nc1N
19 µM | N=C(N)NC(=O)c1ncc(N)nc1N
177 µM | N=C(N)NC(=O)c1nc(Cl)c(NCc2nnn[nH]2)nc1N
> 1000 µM | N=C(N)NC(=O)c1nc(Cl)c(NCCP(=O)(O)O)nc1N
102 µM | N=C(N)NC(=O)c1nc(Cl)c(NCCC(=O)O)nc1N
2 µM | N=C(N)NC(=O)c1nc(C#Cc2ccccc2)c(N)nc1N
110 µM | N=C(N)NC(=O)c1nc(Cl)c(NCC(=O)O)nc1N

The remaining lines, values behind:

Structure (SMILES) | IC50
N=C(N)NC(=O)c1ncc(NCCc2ccccc2)nc1N | 120 µM
N=C(N)NC(=O)c1ncc(NCc2ccccc2)nc1N | 43 µM
N=C(N)NC(=O)c1nc(Cl)c(NCCNCc2ccccc2)nc1N | 28 µM
N=C(N)NC(=O)c1nc(Cl)c(NCCc2ccccc2)nc1N | 16 µM
CCOP(=O)(NNc1nc(N)c(C(=O)NC(=N)N)nc1Cl)OCC | 10 µM
NNC(=O)c1nc(Cl)c(N)nc1N | > 1000 µM
Cc1ccc(S(=O)(=O)NCCNc2nc(N)c(C(=O)NC(=N)N)nc2Cl)cc1 | 35 µM
N=C(N)NC(=O)c1cccnc1 [AMINO(NICOTINAMIDO)METHANIMINIUM CHLORIDE] | > 1000 µM
N=C(N)NC(=O)c1ccccn1 [AMINO(PICOLINAMIDO)METHANIMINIUM CHLORIDE] | > 1000 µM
COc1cc(N)c(Cl)cc1C(=O)NC(=N)N | 222 µM
N=C(N)NC(=O)c1ccccc1 [AMINO(BENZAMIDO)METHANIMINIUM CHLORIDE] | > 1000 µM
N=C(N)NC(=O)c1cnccn1 | > 1000 µM
N=C(N)NC(=O)c1c[nH]cn1 | > 1000 µM
N=C(N)NC(=O)c1cnc(Cl)c(Cl)c1 | > 1000 µM
N=C(N)NC(=O)c1nc(Cl)c(NCC[n+]2ccccc2)nc1N | 30 µM
N=C(N)NC(=O)c1nc(Cl)c(NCCSCc2ccccc2)nc1N | 21 µM
N=C(N)NC(=O)c1nc(Cl)c(N2CCCCCC2)nc1N | 6 µM
Nc1noc(-c2nc(Cl)c(N)nc2N)n1 | > 1000 µM
CN(CCNc1nc(N)c(C(=O)NC(=N)N)nc1Cl)Cc1ccccc1 | 15 µM
N=C(N)NC(=O)c1nc(Cl)c(NCCS(=O)(=O)Cc2ccccc2)nc1N | 15 µM
N=C(N)NC(=O)c1nc(Cl)c(NCc2ccc(F)cc2)nc1N | 6 µM
CCOP(=O)(CNc1nc(N)c(C(=O)NC(=N)N)nc1Cl)OCC | 37 µM
CCOP(=O)(CCNc1nc(N)c(C(=O)NC(=N)N)nc1Cl)OCC | 44 µM

Biological target: Sodium/hydrogen exchanger 1 (Homo sapiens) (UniProt P19634)
Test: Ratio of compound K0.5 to amiloride K0.5 for NHE1

Ratio | Structure (SMILES)
140 | CCN(c1nc(N)c(C(=O)NC(=N)N)nc1Cl)C(C)C
566 | N=C(N)NC(=O)c1nc(Br)c(N2CCCCCC2)nc1N
313 | CCN(c1nc(N)c(C(=O)NC(=N)N)nc1I)C(C)C

Structure (SMILES) | Ratio
N=C(N)NC(=O)c1nc(Cl)c(N2CCCCCC2)nc1N | 524

Biological target: T1, Urokinase-type plasminogen activator
Test: Ratio of compound K0.5 to amiloride K0.5 for urokinase-type plasminogen activator

Structure (SMILES) | Ratio IC50
CCN(c1nc(N)c(C(=O)NC(=N)N)nc1Cl)C(C)C | 2
N=C(N)NC(=O)c1nc(Cl)c(N2CCCCCC2)nc1N | 2
